For one data set, the target named is Mammalian DNA-PK (Homo sapiens, UniProt P78527). The data set can be described thus: DNA-PK inhibition assay (ELISA of p53 Ser15 phosphorylation of GST-p53N66). It counts as biochemical, human (isolated from HeLa cell nuclear extract). As for the experimental part: In order to assess the inhibitory action of the compounds against DNA-PK in vitro, the following assay was used to determine IC50 values.
To the assay mix, varying concentrations of inhibitor (in DMSO at a final concentration of 1%) were added. After 10 minutes of incubation, ATP was added to give a final concentration of 50 μM along with a 30 mer double stranded DNA oligonucleotide (final concentration of 0.5 ng/ml) to initiate the reaction. After 1 hour with shaking, 150 μl of phosphate buffered saline (PBS) was added to the reaction and 5 μl then transferred to a 96 well opaque white plate containing 45 μl of PBS per well where the GSTp53N66 substrate was allowed to bind to the wells for 1 hour. To detect the phosphorylation event on the serine 15 residue of p53 elicited by DNA-PK a p53 phosphoserine-15 antibody (Cell Signaling Technology) was used in a basic ELISA procedure. An anti-rabbit HRP conjugated secondary antibody (Pierce) was then employed in the ELISA before the addition of chemiluminescence reagent (NEN Renaissance) to detect the signal as measured by chemiluminescent counting via a TopCount NXT (Packard).
The enzyme activity for each compound is then calculated using the following equation: […]
These are determined over a range of different concentrations, normally from 10 μM down to 0.001 μM. Such IC50 values are used as comparative values to identify increased compound potencies.
On the technique in general: An ELISA detects its analyte on a solid surface through an enzyme-linked reagent.

For the next data set, the system named is cells. As to conditions: ionising radiation, literature; cited from earlier work.
The test system of the next data set is HeLa cells. The data set can be described thus: Survival Enhancement Ratio (clonogenic survival after 2 Gray irradiation). Format: cell-based, human. As to conditions: inhibitor at 100 nM. As for the experimental part:
Survival Enhancement Ratio
The Survival Enhancement Ratio (SER) is a ratio of the enhancement of cell kill elicited by the DNA-PK inhibitor after 2 Grays of irradiation compared to unirradiated control cells. […] Radiation was delivered by a Faxitron 43855D machine at a dose rate of 1 Gy pre minute The SER at 2 Gray irradiation was calculated from the formula:
The degree of cell killing was monitored by a standard clonogenic survival assay. Briefly, tissue culture treated 6-well plates were seeded with HeLa cells at an appropriate concentration to give 100-200 colonies per well and returned to the incubator in order to allow the cells to attach. Four hours later, compound or vehicle control was added to the cells. The cells were then incubated for 1 hour in the presence of inhibitor prior to irradiation at 2 Gray using a Faxitron 43855D cabinet X-ray machine. The cells were then incubated for a further 16 hours before the media was replaced with fresh media in the absence of DNA-PK inhibitor. After 8 days, colonies formed were fixed and stained with Giemsa (Sigma, Poole, UK) and scored using an automated colony counter (Oxford Optronics Ltd, Oxford, UK). The data was calculated as described above.

[1] abbreviates: DNA-PK from HeLa nuclear extract, 50 μM ATP, 30° C., read-out: IC50 (concentration at which 50% of the enzyme activity is inhibited), DNA-PK inhibition.

Where two headings read alike, the source gives them in different places.

As a reminder, the melting point is the temperature of the solid-liquid transition.

With `Nc1ccc(-c2cccn3c(=O)cc(N4CCOCC4)nc23)c2sc3ccccc3c12` [Compound 23, 9-(1-Amino-dibenzothiophen-4-yl)-2-morpholin-4-yl-pyrido[2,1-a]pyrimidin-4-one], the IC50 on Mammalian DNA-PK (setting [1]) was under 100 nM.
Still for that read-out and setting: the figure for `Nc1ccc(-c2cccc3c(=O)cc(N4CCOCC4)[nH]c23)c2sc3ccccc3c12` [Compound 25, 8-(1-amino-dibenzothiophen-4-yl)-2-morpholin-4-yl-1H-quinolin-4-one] is under 100 nM.
For `O=c1cc(N2CCOCC2)[nH]c2c(-c3ccc([N+](=O)[O-])c4c3oc3ccccc34)cccc12` [Compound 28, 2-Morpholin-4-yl-8-(1-nitro-dibenzofuran-4-yl)-1H-quinolin-4-one], the melting point was found to be 247 °C.
Turning to `O=c1cc(N2CCOCC2)nc2c(-c3ccc(O)c4c3sc3ccccc34)cccn12` [Compound 31, 9-(1-Hydroxy-dibenzothiophen-4-yl)-2-morpholin-4-yl-pyrido[2,1-a]pyrimidin-4-one], on Mammalian DNA-PK (setting [1]), the IC50 is under 100 nM.
In turn, `O=c1cc(N2CCOCC2)nc2c(-c3cccc4c3oc3ccccc34)cccn12` [Compound 34b] registered an IC50 against Mammalian DNA-PK of under 100 nM.
Take `O=C(CN1CCOCC1)Nc1ccc(-c2cccc3c(=O)cc(N4CCOCC4)[nH]c23)c2sc3ccccc3c12` [Compound 38b]: on Mammalian DNA-PK (setting [1]), the IC50 was under 100 nM.
The same measure, in the same setting: the result for `COCCN1CCN(CC(=O)Nc2ccc(-c3cccc4c(=O)cc(N5CCOCC5)[nH]c34)c3oc4ccccc4c23)CC1` [Compound 42b] reads under 100 nM.
Same read-out and setting: the figure for `C[C@@H]1CN(CC(=O)Nc2ccc(-c3cccc4c(=O)cc(N5CCOCC5)[nH]c34)c3oc4ccccc4c23)C[C@H](C)O1` [Compound 42d] is under 100 nM; for `O=C(CN1CCN(CCO)CC1)Nc1ccc(-c2cccc3c(=O)cc(N4CCOCC4)[nH]c23)c2oc3ccccc3c12` [Compound 42f] it is under 100 nM.
Regarding `C[C@@H]1CN(CCC(=O)Nc2ccc(-c3cccc4c(=O)cc(N5CCOCC5)oc34)c3oc4ccccc4c23)C[C@H](C)O1` [Compound 45a], the IC50 on Mammalian DNA-PK (setting [1]) is under 100 nM.
On the same count and under the same terms, the result for `O=C(CCN1CCOCC1)Nc1ccc(-c2cccc3c(=O)cc(N4CCOCC4)oc23)c2oc3ccccc3c12` [Compound 45c] reads under 100 nM.
Turning to `O=c1cc(N2CCOCC2)oc2c(-c3ccccc3)cccc12` [LY294002], the “sensitisation of cells to the effects of IR” value with cells is “weakly sensitise cells”.
Take `O=c1cc(N2CCOCC2)oc2c(-c3cccc4c3sc3ccccc34)cccc12` [reference compound]: the “SER (Survival Enhancement Ratio)” value in the data set with HeLa cells was 1.3. Further, the IC50 at Mammalian DNA-PK is 10 to 12 nM.

These data come from US7696203B2, “DNA-PK inhibitors” (Kudos Pharmaceuticals Limited, priority 2005, dated 2010).
